Assay results taken from patent US7253187B2, “Heterocyclic inhibitors of ERK2 and uses thereof” (Vertex Pharmaceuticals Incorporated, priority 2001, dated 2007).

biological target: T1, GSK-3β (AA 1–420) (Homo sapiens, UniProt P49841); test: GSK-3 inhibition assay (coupled enzyme system); assay type: biochemical; conditions: read-out: GSK3 Inhibitory Activity (Ki class)
T1 construct: GSK-3β (AA 1–420)
Description: Final substrate concentrations in the assay were 20 μM ATP (Sigma Chemicals, St Louis, Mo.) and 300 μM peptide (HSSPHQS(PO3H2)EDEEE, American Peptide, Sunnyvale, Calif.). Reactions were carried out at 30° C. and 20 nM GSK-3β. Final concentrations of the components of the coupled enzyme system were 2.5 mM phosphoenolpyruvate, 300 μM NADH, 30 μg/ml pyruvate kinase and 10 μg/ml lactate dehydrogenase.
An assay stock buffer solution was prepared containing all of the reagents listed above with the exception of ATP and the test compound of interest. The assay stock buffer'solution (175 μl) was incubated in a 96 well plate with 5 μl of the test compound of interest at final concentrations spanning 0.002 μM to 30 μM at 30° C. for 10 min. […] The reaction was initiated by the addition of 20 μl of ATP (final concentration 20 μM). Rates of reaction were obtained using a Molecular Devices Spectramax plate reader (Sunnyvale, Calif.) over 10 min at 30° C. The Ki values were determined from the rate data as a function of inhibitor concentration.
The compound numbers correspond to the compound numbers in Table 1.

T1 sequence (P49841 whole entry, species assumed, the tested form may be a part): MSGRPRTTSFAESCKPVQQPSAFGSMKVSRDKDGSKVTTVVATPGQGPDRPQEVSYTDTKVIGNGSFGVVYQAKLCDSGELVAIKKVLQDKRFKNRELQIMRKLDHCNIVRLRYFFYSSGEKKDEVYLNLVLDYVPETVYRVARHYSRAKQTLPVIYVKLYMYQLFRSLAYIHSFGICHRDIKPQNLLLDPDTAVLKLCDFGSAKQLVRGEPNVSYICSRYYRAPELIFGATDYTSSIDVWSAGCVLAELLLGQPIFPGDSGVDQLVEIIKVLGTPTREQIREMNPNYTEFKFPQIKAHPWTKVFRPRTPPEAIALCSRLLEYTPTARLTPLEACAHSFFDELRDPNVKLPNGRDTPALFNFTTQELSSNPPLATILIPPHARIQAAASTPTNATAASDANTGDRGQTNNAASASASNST

Structure (SMILES)	Ki
COc1cccc(Nc2ncc(C)c(-c3c[nH]c(C(=O)NC(CO)c4ccccc4)c3)n2)c1 (stereo not shown) [III-a-137, 4-[2-(3-Methoxy-phenylamino)-5-methyl-pyrimidin-4-yl]-1H-pyrrole-2-carboxylic acid (2-hydroxy-1-phenyl-ethyl)-amide]	< 100 nM

biological target: ERK2 (Homo sapiens, UniProt P28482); test: ERK2 inhibition assay (spectrophotometric coupled-enzyme assay); assay type: biochemical; conditions: ERK2 Inhibitory Activity (Ki class D-F)
Sequence (P28482 whole entry): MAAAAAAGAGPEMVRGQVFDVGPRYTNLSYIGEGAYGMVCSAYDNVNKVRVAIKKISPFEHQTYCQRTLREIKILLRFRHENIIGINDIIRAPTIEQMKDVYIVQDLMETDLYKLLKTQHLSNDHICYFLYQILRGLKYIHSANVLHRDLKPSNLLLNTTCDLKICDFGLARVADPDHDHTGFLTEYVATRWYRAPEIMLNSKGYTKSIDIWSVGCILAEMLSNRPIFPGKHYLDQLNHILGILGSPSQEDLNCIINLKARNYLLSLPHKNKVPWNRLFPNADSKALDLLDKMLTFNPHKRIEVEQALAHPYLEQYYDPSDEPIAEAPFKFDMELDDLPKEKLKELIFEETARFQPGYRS
Description: The IC50 was evaluated from the rate data as a function of inhibitor concentration. […] The compound numbers correspond to the compound numbers in Table 1.

Structure (SMILES)	Ki
Cc1cnc(Nc2nc(N3CCCCC3)nc3ccccc23)nc1-c1c[nH]c(C(=O)NCc2ccccc2)c1 [III-a-133, 4-[5-Methyl-2-(2-piperidin-1-yl-quinazolin-4-ylamino)-pyrimidin-4-yl]-1H-pyrrole-2-carboxylic acid benzylamide]	> 1000 nM

same assay, conditions: read-out: ERK2 Inhibitory Activity (Ki class D-F)

Structure (SMILES)	Ki
COCc1cnc(N)nc1-c1c[nH]c(C(=O)N[C@H](CO)c2ccccc2)c1 [III-a-161, 4-(2-Amino-5-methoxymethyl-pyrimidin-4-yl)-1H-pyrrole-2-carboxylic acid (2-hydroxy-1-phenyl-ethyl)-amide]	100 to 1000 nM
COCc1cnc(Nc2ccccc2)nc1-c1c[nH]c(C(=O)NC(CO)c2ccccc2)c1 (stereo not shown) [III-a-160, 4-(5-Methoxymethyl-2-phenylamino-pyrimidin-4-yl)-1H-pyrrole-2-carboxylic acid (2-hydroxy-1-phenyl-ethyl)-amide]	100 to 1000 nM
Cc1cnc(NC(CO)CO)nc1-c1c[nH]c(C(=O)NC(CO)c2ccccc2)c1 (stereo not shown) [III-a-235, 4-[2-(2-Hydroxy-1-hydroxymethyl-ethylamino)-5-methyl-pyrimidin-4-yl]-1H-pyrrole-2-carboxylic acid (2-hydroxy-1-phenyl-ethyl)-amide]	< 100 nM
CCNc1ncc(C)c(-c2c[nH]c(C(=O)NC(CO)c3ccccc3F)c2)n1 (stereo not shown) [III-a-192, 4-(2-Ethylamino-5-methyl-pyrimidin-4-yl)-1H-pyrrole-2-carboxylic acid [1-(2-fluoro-phenyl)-2-hydroxy-ethyl]-amide]	100 to 1000 nM
CCNc1ncc(C)c(-c2c[nH]c(C(=O)NC(C(C)=O)c3ccccc3)c2)n1 (stereo not shown) [III-a-197, 4-(2-Ethylamino-5-methyl-pyrimidin-4-yl)-1H-pyrrole-2-carboxylic acid (2-oxo-1-phenyl-propyl)-amide]	> 1000 nM
CCCNc1ncc(C)c(-c2c[nH]c(C(=O)NC(CO)c3ccccc3)c2)n1 (stereo not shown) [III-a-163, 4-(5-Methyl-2-propylamino-pyrimidin-4-yl)-1H-pyrrole-2-carboxylic acid (2-hydroxy-1-phenyl-ethyl)-amide]	< 100 nM
O=C(NCc1ccc2c(c1)OCO2)c1cc(-c2nc(Nc3ccccc3)ncc2-c2cc(Cl)cc(Cl)c2)c[nH]1 [III-a-103, 4-[5-(3,5-Dichloro-phenyl)-2-phenylamino-pyrimidin-4-yl]-1H-pyrrole-2-carboxylic acid (benzo[1,3]dioxol-5-ylmethyl)-amide]	> 1000 nM
CCNc1ncc(C)c(-c2c[nH]c(C(=O)NCC(O)c3ccccc3)c2)n1 (stereo not shown) [III-a-169, 4-(2-Ethylamino-5-methyl-pyrimidin-4-yl)-1H-pyrrole-2-carboxylic acid (2-hydroxy-2-phenyl-ethyl)-amide]	100 to 1000 nM
CC(C(O)c1ccccc1)N(C)C(=O)c1cc(-c2ccnc(N)n2)c[nH]1 (stereo not shown) [III-a-180, 4-(2-Amino-pyrimidin-4-yl)-1H-pyrrole-2-carboxylic acid (2-hydroxy-1-methyl-2-phenyl-ethyl)-methyl-amide]	> 1000 nM
Cc1cnc(NOCC2CC2)nc1-c1c[nH]c(C(=O)NC(CO)c2ccccc2)c1 (stereo not shown) [III-a-220, 4-(2-Cyclopropylmethoxyamino-5-methyl-pyrimidin-4-yl)-1H-pyrrole-2-carboxylic acid (2-hydroxy-1-phenyl-ethyl)-amide]	< 100 nM
CCCNC(=O)c1cc(-c2nc(Nc3ccccc3)ncc2C)c[nH]1 [III-a-111, 4-(5-Methyl-2-phenylamino-pyrimidin-4-yl)-1H-pyrrole-2-carboxylic acid propylamide]	< 100 nM
Cc1cnc(NN(C)C)nc1-c1c[nH]c(C(=O)N[C@H](CO)c2ccccc2)c1 [III-a-226, 4-[2-(N′,N′-Dimethyl-hydrazino)-5-methyl-pyrimidin-4-yl]-1H-pyrrole-2-carboxylic acid (2-hydroxy-1-(S)-phenyl-ethyl)-amide]	< 100 nM
Cc1cc(Nc2ncc(C)c(-c3c[nH]c(C(=O)NC(CO)c4ccccc4)c3)n2)no1 (stereo not shown) [III-a-229, 4-[5-Methyl-2-(5-methyl-isoxazol-3-ylamino)-pyrimidin-4-yl]-1H-pyrrole-2-carboxylic acid (2-hydroxy-1-phenyl-ethyl)-amide]	100 to 1000 nM
CCC(CO)Nc1ncc(C)c(-c2c[nH]c(C(=O)NC(CO)c3cccc(C)c3)c2)n1 (stereo not shown) [III-a-234, 4-[2-(1-Hydroxymethyl-propylamino)-5-methyl-pyrimidin-4-yl]-1H-pyrrole-2-carboxylic acid (2-hydroxy-1-m-tolyl-ethyl)-amide]	< 100 nM
CCONc1ncc(C)c(-c2c[nH]c(C(=O)N[C@H](CO)c3ccccc3)c2)n1 [III-a-195, 4-(2-Ethoxyamino-5-methyl-pyrimidin-4-yl)-1H-pyrrole-2-carboxylic acid (2-hydroxy-1-phenyl-ethyl)-amide]	< 100 nM
CCC(CO)Nc1ncc(C)c(-c2c[nH]c(C(=O)NC(CO)c3ccccc3)c2)n1 (stereo not shown) [III-a-236, 4-[2-(1-Hydroxymethyl-propylamino)-5-methyl-pyrimidin-4-yl]-1H-pyrrole-2-carboxylic acid (2-hydroxy-1-phenyl-ethyl)-amide]	< 100 nM
Cc1cnc(Nc2ccccc2)nc1-c1c[nH]c(C(=O)NCCCc2ccccc2)c1 [III-a-112, 4-(5-Methyl-2-phenylamino-pyrimidin-4-yl)-1H-pyrrole-2-carboxylic acid (3-phenyl-propyl)-amide]	< 100 nM
CCNc1ncc(C)c(-c2c[nH]c(C(=O)NC3CC3)c2)n1 [III-a-114, 4-(2-Ethylamino-5-methyl-pyrimidin-4-yl)-1H-pyrrole-2-carboxylic acid cyclopropylamide]	> 1000 nM
CCOC(=O)NNc1ncc(C)c(-c2c[nH]c(C(=O)N[C@H](CO)c3ccccc3)c2)n1 [III-a-218, N′-{4-[5-(2-Hydroxy-1-phenyl-ethylcarbamoyl)-1H-pyrrol-3-yl]-5-methyl-pyrimidin-2-yl}-hydrazinecarboxylic acid ethyl ester]	100 to 1000 nM
Cc1cnc(N)nc1-c1c[nH]c(C(=O)NCCc2cccnc2)c1 [III-a-107, 4-(2-Amino-5-methyl-pyrimidin-4-yl)-1H-pyrrole-2-carboxylic acid (2-pyridin-3′-yl-ethyl)-amide]	> 1000 nM
Cc1cnc(Nc2ccccc2)nc1-c1c[nH]c(C(=O)NCCN)c1 [III-a-120, 4-(5-Methyl-2-phenylamino-pyrimidin-4-yl)-1H-pyrrole-2-carboxylic acid (2-amino-ethyl)-amide]	100 to 1000 nM
CCNc1ncc(C)c(-c2c[nH]c(C(=O)NC(C)C(O)c3ccccc3)c2)n1 (stereo not shown) [III-a-168, 4-(2-Ethylamino-5-methyl-pyrimidin-4-yl)-1H-pyrrole-2-carboxylic acid (2-hydroxy-1-methyl-2-phenyl-ethyl)-amide]	> 1000 nM
Nc1ncc(-c2cc(F)cc(C(F)(F)F)c2)c(-c2c[nH]c(C(=O)NC(CO)c3ccccc3)c2)n1 (stereo not shown) [III-a-105, 4-[2-Amino-5-(3-fluoro-5-trifluoromethyl-phenyl)-pyrimidin-4-yl]-1H-pyrrole-2-carboxylic acid (2-hydroxy-1-phenyl-ethyl)-amide]	100 to 1000 nM
Cc1cnc(Nc2ccon2)nc1-c1c[nH]c(C(=O)NC(CO)c2ccccc2)c1 (stereo not shown) [III-a-221, 4-[2-(Isoxazol-3-ylamino)-5-methyl-pyrimidin-4-yl]-1H-pyrrole-2-carboxylic acid (2-hydroxy-1-phenyl-ethyl)-amide]	< 100 nM
Cc1cnc(NCc2cccnc2)nc1-c1c[nH]c(C(=O)NC(CO)c2ccccc2)c1 (stereo not shown) [III-a-219, 4-{5-Methyl-2-[(pyridin-3-ylmethyl)-amino]-pyrimidin-4-yl}-1H-pyrrole-2-carboxylic acid (2-hydroxy-1-phenyl-ethyl)-amide]	< 100 nM
CCN(CC)CCNc1ncc(C)c(-c2c[nH]c(C(=O)NCc3ccc(F)c(F)c3)c2)n1 [III-a-132, 4-[2-(2-Diethylamino-ethylamino)-5-methyl-pyrimidin-4-yl]-1H-pyrrole-2-carboxylic acid 3i4-difluoro-benzylamide]	> 1000 nM
Cc1cnc(NC2CC2C)nc1-c1c[nH]c(C(=O)NC(CO)c2ccccc2)c1 (stereo not shown) [III-a-237, 4-[5-Methyl-2-(2-methyl-cyclopropylamino)-pyrimidin-4-yl]-1H-pyrrole-2-carboxylic acid (2-hydroxy-1-phenyl-ethyl)-amide]	< 100 nM
CCNc1ncc(C)c(-c2c[nH]c(C(=O)NC(CO)C(O)c3ccccc3)c2)n1 (stereo not shown) [III-a-171, 4-(2-Ethylamino-5-methyl-pyrimidin-4-yl)-1H-pyrrole-2-carboxylic acid (2-hydroxy-1-hydroxymethyl-2-phenyl-ethyl)-amide]	> 1000 nM
CCNc1ncc(C)c(-c2c[nH]c(C(=O)NC(CO)C(O)c3ccccc3)c2)n1 (stereo not shown) [III-a-170, 4-(2-Ethylamino-5-methyl-pyrimidin-4-yl)-1H-pyrrole-2-carboxylic acid (2-hydroxy-1-hydroxymethyl-2-phenyl-ethyl)-amide]	> 1000 nM
